Measured values as given in US10669302B2, “Crystal form of fludarabine phosphate, preparation method therefor, and application thereof” (Zhejiang Hisun Pharmaceutical Co., Ltd., priority 2015, dated 2020).

Tests used:
[1] = Tests of dissolution rates (turbidimeter, purified water); format: physicochemical; design: Reading: unit not given here; conditions: for Solution state / Turbidity / Reading: 50 mg in 10 ml purified water; for Clarity achieved in purified water: in a short period of time, summary of Table 3; for Reading: turbidimeter
Procedure: The turbidimeter and the test conditions involved in the present invention are: turbidimeter model: MERCK TURBIQUANT 1500IR; operation method: the purified water was used as a zero point control, 50 mg of crystal form I of fludarabine phosphate and 50 mg of crystal form II of fludarabine phosphate were dissolved in 10 ml of purified water respectively as test samples, the specific test data can be seen in Table 3.
Tests of Dissolution Rates for Crystal Form I and Crystal Form II of Fludarabine Phosphate

[2] = Stability tests (sealed PE and aluminum foil bags, liquid chromatography); format: physicochemical; conditions: for Stability in words: under room temperature and refrigerated conditions, summary of Table 4
Procedure: The liquid chromatography test conditions involved in the present invention are: chromatographic column: SHIMADZU, VP-ODS, 4.6 mm×15 cm 5 μm or equivalent;
mobile phase A: 10 mM monopotassium phosphate (0.01 mol/l):methanol=47:3; detection wavelength: 260 nm; flow rate: 1.0 ml/min; injection volume: 10 μl.
Packaging condition: crystal form I and crystal form II of fludarabine phosphate were first sealed and packaged with PE bags respectively, and then sealed and packaged with aluminum foil bags outside, the samples were reserved at room temperature and refrigerated conditions, the samples were tested with the liquid chromatography. The test condition of the liquid chromatography is described in SUMMARY OF THE INVENTION section of this application.

[3] = 10 s, listed as Cyrstal form II
[4] = 40 s, listed as Cyrstal form II
[5] = before the samples were reserved
[6] = refrigerated (2-10° C.), humidity 75%, reserved for five months
[7] = refrigerated (2-10° C.), humidity 75%, reserved for four months
[8] = refrigerated (2-10° C.), humidity 75%, reserved for one month
[9] = refrigerated (2-10° C.), humidity 75%, reserved for six months
[10] = refrigerated (2-10° C.), humidity 75%, reserved for three months
[11] = refrigerated (2-10° C.), humidity 75%, reserved for two months
[12] = room temperature (10-30° C.), humidity 75%, reserved for five months
[13] = room temperature (10-30° C.), humidity 75%, reserved for four months
[14] = room temperature (10-30° C.), humidity 75%, reserved for one month
[15] = room temperature (10-30° C.), humidity 75%, reserved for six months
[16] = room temperature (10-30° C.), humidity 75%, reserved for three months
[17] = room temperature (10-30° C.), humidity 75%, reserved for two months

SMILES	Solution state ([1]; 70 s)	Solution state ([1]; 80 s)	Solution state ([1]; 90 s)	Solution state ([1]; 100 s)	Clarity achieved in purified water [1]	Liquid chromatography result of stability sample [2, 5]	Liquid chromatography result of stability sample [2, 6]	Liquid chromatography result of stability sample [2, 7]	Liquid chromatography result of stability sample [2, 8]	Liquid chromatography result of stability sample [2, 9]	Liquid chromatography result of stability sample [2, 10]	Liquid chromatography result of stability sample [2, 11]	Liquid chromatography result of stability sample [2, 12]	Liquid chromatography result of stability sample [2, 13]	Liquid chromatography result of stability sample [2, 14]	Liquid chromatography result of stability sample [2, 15]	Liquid chromatography result of stability sample [2, 16]	Liquid chromatography result of stability sample [2, 17]	Stability in words [2]	other results
Nc1nc(F)nc2c1ncn2[C@@H]1O[C@H](COP(=O)(O)O)[C@@H](O)[C@@H]1O [Crystal form II, 9-β-D-arabinofuranosyl-2-fluoroadenine-5′-phosphate]	Clear	Clear	Clear	Clear	good clarity	99.677%	99.677%	99.677%	99.677%	99.677%	99.677%	99.677%	99.663%	99.663%	99.673%	99.663%	99.667%	99.668%	good stabilities	Solution state ([1]; 5 s, listed as Cyrstal form II): Turbid; Turbidity ([1]; 5 s, listed as Cyrstal form II): Sample >1; Solution state [1, 3]: Turbid; Turbidity [1, 3]: Sample >1; Solution state ([1]; 20 s, listed as Cyrstal form II): Turbid; Solution state ([1]; 30 s, listed as Cyrstal form II): Turbid; Solution state [1, 4]: Turbid; Reading [1, 4]: 6.41; Reading ([1]; 50 s, listed as Cyrstal form II): 4.54; Reading ([1]; 60 s, listed as Cyrstal form II): 3.32; Reading ([1]; 70 s, listed as Cyrstal form II): 2.56; Reading ([1]; 80 s, listed as Cyrstal form II): 2.41; Reading ([1]; 90 s, listed as Cyrstal form II): 2.29; Reading ([1]; 100 s, listed as Cyrstal form II): 2.29
Nc1nc(F)nc2c1ncn2[C@@H]1O[C@H](COP(=O)(O)O)[C@@H](O)[C@@H]1O [Crystal form I, 9-β-D-arabinofuranosyl-2-fluoroadenine-5′-phosphate]	Clear	Clear	Clear	Clear	good clarity	99.685%	99.685%	99.685%	99.685%	99.685%	99.685%	99.685%	99.684%	99.684%	99.685%	99.684%	99.685%	99.685%	good stabilities	Solution state ([1]; 5 s): Clear; Solution state ([1]; 10 s): Clear; Solution state ([1]; 20 s): Clear; Solution state ([1]; 30 s): Clear; Solution state ([1]; 40 s): Clear; Solution state ([1]; 50 s): Clear; Solution state ([1]; 60 s): Clear; Reading ([1]; 5 s): 2.2; Reading ([1]; 10 s): 1.75; Reading ([1]; 20 s): 1.75; Reading ([1]; 30 s): 1.75; Reading ([1]; 40 s): 1.75; Reading ([1]; 50 s): 1.75; Reading ([1]; 60 s): 1.75; Reading ([1]; 70 s): 1.75; Reading ([1]; 80 s): 1.75; Reading ([1]; 90 s): 1.75; Reading ([1]; 100 s): 1.75
